Data reported in PubChem BioAssay AID2060613 (Molecular Pharmacology Branch, DTP, NCI, 2025).

Test system: 233499-124-R-J3-PDC complex spheroid viability
Test: Anticancer human tumor 233499-124-R-J3-PDC patient-derived colon adenocarcinoma cell line growth inhibition [CLK]
Conditions: for IC50: curve of first compound; for viability, T/C: stronger effect = lower value; active means viability on the fitted dose curve at most 10% of control; inactive means the rest
Summary of the method: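 Multi-cell-type spheroids combined patient-derived tumor cells with HUVEC endothelial cells and human mesenchymal stem cells. Paired agents were dosed in half-log steps down from about clinical Cmax, or from 10 microM where Cmax was unknown.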

[1] = second compound 0.0316 µM, first compound 0.0316 µM
[2] = second compound 0.0316 µM, first compound 0.1 µM
[3] = second compound 0.1 µM, first compound 0.0316 µM
[4] = second compound 0.1 µM, first compound 0.1 µM
[5] = second compound 0.316 µM, first compound 0.0316 µM
[6] = second compound 0.316 µM, first compound 0.1 µM
[7] = second compound 1 µM, first compound 0.0316 µM
[8] = second compound 1 µM, first compound 0.1 µM
[9] = second compound 3.16 µM, first compound 0.0316 µM
[10] = second compound 3.16 µM, first compound 0.1 µM
[11] = second compound 10 µM, first compound 0.0316 µM
[12] = second compound 10 µM, first compound 0.1 µM
[13] = second compound 0.0316 µM, first compound 0.316 µM
[14] = second compound 0.0316 µM, first compound 1 µM
[15] = second compound 0.0316 µM, first compound 3.16 µM
[16] = second compound 0.0316 µM, first compound 10 µM
[17] = second compound 0.1 µM, first compound 0.316 µM
[18] = second compound 0.1 µM, first compound 1 µM
[19] = second compound 0.1 µM, first compound 3.16 µM
[20] = second compound 0.1 µM, first compound 10 µM
[21] = second compound 0.316 µM, first compound 0.316 µM
[22] = second compound 0.316 µM, first compound 1 µM
[23] = second compound 0.316 µM, first compound 3.16 µM
[24] = second compound 0.316 µM, first compound 10 µM
[25] = second compound 1 µM, first compound 0.316 µM
[26] = second compound 1 µM, first compound 1 µM
[27] = second compound 1 µM, first compound 3.16 µM
[28] = second compound 1 µM, first compound 10 µM
[29] = second compound 3.16 µM, first compound 0.316 µM
[30] = second compound 3.16 µM, first compound 1 µM
[31] = second compound 3.16 µM, first compound 3.16 µM
[32] = second compound 3.16 µM, first compound 10 µM
[33] = second compound 10 µM, first compound 0.316 µM
[34] = second compound 10 µM, first compound 1 µM
[35] = second compound 10 µM, first compound 3.16 µM
[36] = second compound 10 µM, first compound 10 µM
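Further: spheroids exposed to the drug combinations for seven days.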
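Wherever viability, T/C is given: percent viability relative to DMSO vehicle control wells taken as 100%.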

Cn1ncnc1[C@H]1c2n[nH]c(=O)c3cc(F)cc(c23)N[C@@H]1c1ccc(F)cc1 + CNC(=O)c1ccc(Nc2nc(OC3CCCC3)c3c(-c4ccc5nc(C)oc5c4)c[nH]c3n2)c(OC)c1
> 100 nM: IC50 (second compound 0.0316 µM) | IC50 (second compound 0.1 µM) | IC50 (second compound 0.316 µM) | IC50 (second compound 1 µM) | IC50 (second compound 3.16 µM) | IC50 (second compound 10 µM)
inactive: viability, T/C (second compound 0.0316 µM, first compound 0.000316 µM) 91.3% | viability, T/C (second compound 0.0316 µM, first compound 0.001 µM) 96.5% | viability, T/C (second compound 0.0316 µM, first compound 0.00316 µM) 91% | viability, T/C (second compound 0.0316 µM, first compound 0.01 µM) 95.9% | viability, T/C [1] 110% | viability, T/C [2] 103% | viability, T/C (second compound 0.1 µM, first compound 0.000316 µM) 77.5% | viability, T/C (second compound 0.1 µM, first compound 0.001 µM) 71.4% | viability, T/C (second compound 0.1 µM, first compound 0.00316 µM) 77.2% | viability, T/C (second compound 0.1 µM, first compound 0.01 µM) 71.8% | viability, T/C [3] 78.8% | viability, T/C [4] 60.8% | viability, T/C (second compound 0.316 µM, first compound 0.000316 µM) 80.5% | viability, T/C (second compound 0.316 µM, first compound 0.001 µM) 75.5% | viability, T/C (second compound 0.316 µM, first compound 0.00316 µM) 58.6% | viability, T/C (second compound 0.316 µM, first compound 0.01 µM) 57.7% | viability, T/C [5] 66% | viability, T/C [6] 64.5% | viability, T/C (second compound 1 µM, first compound 0.000316 µM) 76.5% | viability, T/C (second compound 1 µM, first compound 0.001 µM) 87.3% | viability, T/C (second compound 1 µM, first compound 0.00316 µM) 79.8% | viability, T/C (second compound 1 µM, first compound 0.01 µM) 74.1% | viability, T/C [7] 56.8% | viability, T/C [8] 59.7% | viability, T/C (second compound 3.16 µM, first compound 0.000316 µM) 67.3% | viability, T/C (second compound 3.16 µM, first compound 0.001 µM) 69% | viability, T/C (second compound 3.16 µM, first compound 0.00316 µM) 69.3% | viability, T/C (second compound 3.16 µM, first compound 0.01 µM) 67.8% | viability, T/C [9] 72.8% | viability, T/C [10] 64.8% | viability, T/C (second compound 10 µM, first compound 0.000316 µM) 67.1% | viability, T/C (second compound 10 µM, first compound 0.001 µM) 56.3% | viability, T/C (second compound 10 µM, first compound 0.00316 µM) 74.3% | viability, T/C (second compound 10 µM, first compound 0.01 µM) 73.9% | viability, T/C [11] 50.5% | viability, T/C [12] 58.1%

Nc1ccn(C2OC(CO)C(O)C2(F)F)c(=O)n1 (stereo unspecified) + CNC(=O)c1ccc(Nc2nc(OC3CCCC3)c3c(-c4ccc5nc(C)oc5c4)c[nH]c3n2)c(OC)c1
39.9 nM: IC50 (second compound 3.16 µM)
42.4 nM: IC50 (second compound 1 µM)
inactive: viability, T/C [1] 80.5% | viability, T/C [2] 37.3% | viability, T/C [13] 11.7% | viability, T/C [14] 13.9% | viability, T/C [15] 22.5% | viability, T/C [16] 13.7% | viability, T/C [3] 56.8% | viability, T/C [4] 57.8% | viability, T/C [17] 18.3% | viability, T/C [18] 22% | viability, T/C [19] 18.2% | viability, T/C [20] 18.3% | viability, T/C [5] 65.2% | viability, T/C [6] 56.8% | viability, T/C [21] 15.7% | viability, T/C [22] 8.6% | viability, T/C [23] 14.8% | viability, T/C [24] 14.3% | viability, T/C [7] 63% | viability, T/C [8] 12% | viability, T/C [25] 13.7% | viability, T/C [26] 9.36% | viability, T/C [27] 10.2% | viability, T/C [28] 8.84% | viability, T/C [9] 53.5% | viability, T/C [10] 36% | viability, T/C [29] 11.4% | viability, T/C [11] 53.4% | viability, T/C [12] 41.7% | viability, T/C [33] 11.5%
121 nM: IC50 (second compound 0.316 µM)
44.1 nM: IC50 (second compound 10 µM)
active: viability, T/C [30] 5.38% | viability, T/C [31] 6.79% | viability, T/C [32] 5.11% | viability, T/C [34] 6.13% | viability, T/C [35] 5.83% | viability, T/C [36] 4.84%
71.3 nM: IC50 (second compound 0.0316 µM)
125 nM: IC50 (second compound 0.1 µM)

O=C(c1cc(Cc2n[nH]c(=O)c3ccccc23)ccc1F)N1CCN(C(=O)C2CC2)CC1 + CNC(=O)c1ccc(Nc2nc(OC3CCCC3)c3c(-c4ccc5nc(C)oc5c4)c[nH]c3n2)c(OC)c1
> 10000 nM: IC50 (second compound 0.0316 µM) | IC50 (second compound 0.1 µM) | IC50 (second compound 0.316 µM) | IC50 (second compound 1 µM) | IC50 (second compound 3.16 µM) | IC50 (second compound 10 µM)
inactive: viability, T/C [1] 96% | viability, T/C [2] 91.1% | viability, T/C [13] 93% | viability, T/C [14] 102% | viability, T/C [15] 102% | viability, T/C [16] 95.7% | viability, T/C [3] 76.7% | viability, T/C [4] 84.3% | viability, T/C [17] 71.6% | viability, T/C [18] 70.1% | viability, T/C [19] 57.8% | viability, T/C [20] 55.1% | viability, T/C [5] 75.6% | viability, T/C [6] 77.7% | viability, T/C [21] 78% | viability, T/C [22] 78% | viability, T/C [23] 84.1% | viability, T/C [24] 76.2% | viability, T/C [7] 67.6% | viability, T/C [8] 79.6% | viability, T/C [25] 65.6% | viability, T/C [26] 71.2% | viability, T/C [27] 74.4% | viability, T/C [28] 68.4% | viability, T/C [9] 80% | viability, T/C [10] 79.1% | viability, T/C [29] 75.6% | viability, T/C [30] 66.7% | viability, T/C [31] 87.8% | viability, T/C [32] 59.6% | viability, T/C [11] 71% | viability, T/C [12] 85.3% | viability, T/C [33] 74.8% | viability, T/C [34] 75.2% | viability, T/C [35] 65% | viability, T/C [36] 57.1%
